Experimental data: patent US12419305B2, “Antimicrobial compositions” (Firmenich SA, priority 2018, dated 2025)

Columns and labels:
E. coli ATCC 10536 = experiment: BCT test (bacterial contact time), 45 s, log reduction / effect fraction; CI by Compusyn; format: cell-based, Escherichia coli; conditions: 45 s, in 20% EtOH
Experimental: (§1) E. coli, S. aureus, P. aeruginosa, and S. enterica: Separate suspensions of the E. coli ATCC 10536 strain, S. aureus ATCC 6538 strain, Pseudomonas aeruginosa ATCC 15442 strain, and the Salmonella enterica ATCC 10708 strain were prepared as follows: Stock cultures (stored at −80° C.) were thawed and sub-cultured onto Tryptic Soy Agar (TSA) agar plate media, and incubated at 37° C. for 24 h to obtain single colonies. Single colonies of the primary cultures were streaked onto TSA plates and incubated at 37° for 24 h to generate secondary cultures. Single colonies of secondary cultures picked and used to inoculate into 50 mL of TSB broth. The inoculated TSB broth was incubated at 37° C. at 180 rpm for 18 h. Aliquots (0.5 ml) of the 18 h culture were inoculated into 50 ml of fresh TSB broth, and incubated at 37° C. at 180 rpm for 2-3 hours. When the OD600 nm value of the broth reached 1-2, cells were harvested by centrifugation at 5000 rpm for 10 min, and then resuspended in fresh TSB broth at a concentration of 1-5×10^8 CFU/mL. These suspensions were used as the bacterial suspensions for the BCT test.
(§2) BCT Test: Test compositions at a range of concentrations (either combinations of more than one perfume ingredient, and comparative compositions comprising the single perfume ingredients) were prepared in ethanol. Five replicates of each test composition were added into 96-well microtiter plates (120 μl per well), with row B containing control compositions containing the ethanol solution alone. 120 μl of bacterial cell suspensions at a concentration of approximately 1×10^8 bacteria per mL (as prepared above) were added to each well of the microtiter plate. The bacterial suspensions were incubated with the test solutions for 45, 60, or 120 seconds. Following the incubation of the bacterial suspensions with the test solutions, serial dilutions of the bacterial suspensions were generated (three serial 1:10 dilutions, followed by 17 serial 1:2 dilutions), in multiwell microtiter plates.
(§3) Each plate was sealed and incubated at 37° C. under agitation (180 rpm). After incubation, the turbidity of the wells (OD600 nm) was determined using a Tecan microplate reader. Turbid wells were regarded as positive growth, due to the presence of viable cells. The total number of viable cells (log CFU) for each sample was calculated. And the log reduction for each test composition at the final concentration (dose) was calculated against the control sample of the ethanol solution.
(§4) Determination of Synergy via the Combination Index (CI): The CI was calculated using Compusyn software (ComboSyn, Inc., as created by Dr. Dorothy Chou in 2005), according to the manufacturer's instructions. The concentration of each test composition (combinations of more than one perfume ingredient, and comparative compositions comprising the single perfume ingredients used to generate the combination) and their corresponding effect fraction was entered, and the corresponding CI calculated.
(§5) When the calculated CI values were less than 0.9, the combination of perfume ingredients was regarded as having synergistic effect. When the calculated CI was between 1.0 a 0.9, the combination of perfume ingredients was regarded as having an additive effect. When the calculated CI was greater than 1.0, the combination of perfume ingredients was regarded as having an antagonistic effect.

[1] = tested on: Pseudomonas aeruginosa ATCC 15442; experiment: BCT test (bacterial contact time), 60 s, log reduction / effect fraction; CI by Compusyn; format: cell-based; conditions: BCT 60 s, in 25% EtOH
Experimental: as §1, §2, §3, §4, §5

S. aureus ATCC 6538 = experiment: as above; format: cell-based, Staphylococcus aureus; conditions: Staphylococcus aureus, ATCC6538, 1 min, 60 s, in 25% EtOH
Experimental: as §1, §2, §3, §4, §5

O=Cc1ccc2c(c1)OCO2 [Heliotropine, 1,3-benzodioxole-5-carbaldehyde]
log reduction at 0.45 % strength (E. coli ATCC 10536; Escherichia coli, ATCC10536, 45 s, dose 0.450 % w/v): 0.1
log reduction at 0.55 % strength (E. coli ATCC 10536; Escherichia coli, ATCC10536, 45 s, dose 0.550 % w/v): 5.3
log reduction at 0.6 % strength (E. coli ATCC 10536; Escherichia coli, ATCC10536, 45 s, dose 0.600 % w/v): 7.3
Log reduction (E. coli ATCC 10536; dose 0.450 % w/v): 0.1
Log reduction ([1]; Dose 0.2 % w/v): 0.00
log reduction at 0.2 % strength ([1]; Pseudomonas aeruginosa, ATCC15442, 1 min, Dose 0.2 % w/v): 0
log reduction at 0.3 % strength ([1]; Pseudomonas aeruginosa, ATCC15442, 1 min, Dose 0.3 % w/v): 0.6
log reduction at 0.4 % strength ([1]; Pseudomonas aeruginosa, ATCC15442, 1 min, Dose 0.4 % w/v): 3.4
log reduction at 0.45 % strength ([1]; Pseudomonas aeruginosa, ATCC15442, 1 min, Dose 0.45 % w/v): 4.1
log reduction at 0.55 % strength ([1]; Pseudomonas aeruginosa, ATCC15442, 1 min, Dose 0.55 % w/v): 7.6
log reduction at 0.5 % strength (S. aureus ATCC 6538; dose 0.500 % w/v): 0.7
log reduction at 0.6 % strength (S. aureus ATCC 6538; dose 0.600 % w/v): 2.7
log reduction at 0.7 % strength (S. aureus ATCC 6538; dose 0.700 % w/v): 6.1
log reduction at 0.75 % strength (S. aureus ATCC 6538; dose 0.750 % w/v): 7.1
log reduction at 1 % strength (S. aureus ATCC 6538; dose 1.000 % w/v): 7.1
